This is an account of results in patent US20070004735A1, “Method for inhibiting the replication of herpes viruses” (priority 2003, published 2007).

Each structure is given as a SMILES string.

Series [1] concerns HCMV AD169 clone with mutation in UL86 P586T. Put plainly: Susceptibility (IC50) of resistant HCMV AD169 clone P586T. The series is classed as cell-based, Human cytomegalovirus. The following applies: Human betaherpesvirus 5, read-out: IC 50, P586T. The protocol: (§1) The test compounds are employed as 50 millimolar (mM) solutions in dimethyl sulfoxide (DMSO). Ganciclovir®, Foscarnet® and Cidofovir® are used as reference compounds. After addition of in each case 2 μl of the 50, 5, 0.5 and 0.05 mM DMSO stock solutions to 98 μl portions of cell culture medium in row 2 A-H for duplicate determinations, 1:2 dilutions are carried out with 50 μl portions of medium up to row 11 of the 96-well plate. The wells in rows 1 and 12 each contain 50 μl of medium. 150 μl of a suspension of 1×10^4 cells (human prepuce fibroblasts [NHDF]) are then pipetted into each of the wells (row 1=cell control) and, in rows 2-12, a mixture of HCMV-infected and uninfected NHDF cells (M.O.I.=0.001-0.002), i.e. 1-2 infected cells per 1000 uninfected cells. Row 12 (without substance) serves as virus control. The final test concentrations are 250-0.0005 μM. The plates are incubated at 37° C./5% CO2 for 6 days, i.e. until all the cells are infected in the virus controls (100% cytopathogenic effect [CPE]). The wells are then fixed and stained by adding a mixture of formalin and Giemsa's dye (30 minutes), washed with double-distilled water and dried in a drying oven at 50° C. The plates are then assessed visually using an overhead microscope (plaque multiplier from Technomara).
(§2) For this purpose, NHDF cells are seeded in tissue culture vessels. 5×10^3 cells per well are seeded in 96-well plates and infected with cell-free HCMV AD169 with an moi of 0.03. The infections are cultivated under substance pressure which corresponds to 10 times the IC50 of the substance. Preferably, 30-100 96-well plates inoculated as described are made up. […] Finally, viral stocks are produced as described above and frozen. Serial ten-fold dilution of the virus-infected cells or of the cell culture supernatant of the virus-infected cells is followed by determination of the titer on 24-well plates of confluent NHDF cells after vital staining with neutral red. Finally, the susceptibility to various substances (IC50 determination) is determined as described above.
(§3) The HCMVAD169 mutants selected as described above are grown in vitro on human embryonic prepuce fibroblasts (NHDF cells) under substance pressure (10×IC50 HCMVAD169). After infection of the NHDF cells with a multiplicity of infection (M.O.I) of 0.01, the virus-infected cells are harvested 5-10 days later, and the total DNA is isolated from these cells with the aid of established standard methods (e.g. phenol extraction and ethanol precipitation). Qiagen Sequencing Services (Qiagen, Hilden) determined, after amplification of the viral UL86 gene by PCR, the DNA sequence, which was then transcribed into protein sequence. Compared with the initial strain HCMV AD169, the differences shown in table 2 were detectable in the protein sequence of the major capsid protein (UL86) in the resistant viruses. The IC50 values [μM] of various substances on these mutants compared with the initial strain are likewise indicated. (n.d.=not measured). […] Depending on the nature of the substance, certain mutations lead to various extents of resistance.

Series [2] deals with Human cytomegalovirus (HCMV). The series is described as follows: Anti-HCMV cytopathogenicity test. In kind it is cell-based. The following applies: for IC50: Human betaherpesvirus 5, 144 h, NHDF cells, 6 days, cytopathogenic effect, read-out: IC50, antiviral activity in vitro; for SI (selectivity index): antiviral activity in vitro. The protocol: Human cytomegalovirus (HCMV), DavisSmith (ATCC VR807) or AD169 (ATCC VR538) strain, is grown in vitro on human embryonic prepuce fibroblasts (NHDF cells). After the NHDF cells have been infected with a multiplicity of infection (M.O.I.) of 0.01, the virus-infected cells are harvested 5-10 days later and stored in the presence of minimal essential medium (MEM), 10% fetal calf serum (FCS) with 10% DMSO at −80° C. A cell-free stock is produced by removing only the cell culture supernatant and immediately freezing at −80° C. After serial ten-fold dilutions of the virus-infected cells or of the cell culture supernatant of the virus-infected cells (cell-free virus), the titer is determined on 24-well plates of confluent NHDF cells after vital staining with neutral red.
as §1
For orientation: Damage to the host cells serves as the signal in cytopathic effect assays.

The test system of series [3] is HCMV AD169 clone with mutation in UL86 E1320Q. Put plainly: Susceptibility (IC50) of resistant HCMV AD169 clone E1320Q. In kind it is cell-based, Human cytomegalovirus. To be noted: Human betaherpesvirus 5, read-out: IC 50, E1320Q. How it is done: as §1, §2, §3
Series [4] relates to HCMV AD169 clone with mutation in UL86 Q1223R. Put plainly: Susceptibility (IC50) of resistant HCMV AD169 clone Q1223R. The series is classed as cell-based, Human cytomegalovirus. To be noted: Human betaherpesvirus 5, read-out: IC 50, Q1223R. How it is done:
as §1, §2, §3

Series [5] has as its system HCMV AD169 clone with mutation in UL86 P1189T. Put plainly: Susceptibility (IC50) of resistant HCMV AD169 clone P1189T. The following applies: Human betaherpesvirus 5, read-out: IC 50, P1189T. In kind it is cell-based, Human cytomegalovirus. How it is done: as §1, §2, §3
In series [6] the test system is HCMV AD169 clone with mutation in UL86 R682H. Put plainly: Susceptibility (IC50) of resistant HCMV AD169 clone R682H. The series is classed as cell-based, Human cytomegalovirus. The following applies: Human betaherpesvirus 5, read-out: IC 50, R682H. How it is done: as §1, §2, §3
In the next series the test system is wild-type HCMV AD169. Put plainly: Susceptibility (IC50) of HCMV AD169 wild-type. The series is classed as cell-based, Human cytomegalovirus. The following applies: Human betaherpesvirus 5, NHDF cells, read-out: IC 50, Wild-type. How it is done:
as §1, §2, §3

Series [7] deals with HCMV AD169 clone with mutation in UL86 A1226T. The series is described as follows: Susceptibility (IC50) of resistant HCMV AD169 clone A1226T. In kind it is cell-based, Human cytomegalovirus. The following applies: Human betaherpesvirus 5, read-out: IC 50, A1226T. How it is done:
as §1, §2, §3

By melting point is commonly meant the temperature of the solid-liquid transition. Consider `CC1(C)CC(=O)NN=C1c1cccc(NC(=O)Nc2ccc(F)cc2F)c1` [Example 1, N-(2,4-Difluorophenyl)-N′-[3-(4,4-dimethyl-6-oxo-1,4,5,6-tetrahydro-3-pyridazinyl)phenyl]urea], for which the melting point amounted to 213 °C. For the same molecule, the IC50 in [1] is 4000 nM. Also, in series [2], the IC50 came to 1000 nM and the “SI (selectivity index)” value is reported as 125. Moreover, in [3], the IC50 is over 125000 nM. Also, in series [4], the IC50 was 20000 nM. Besides, the IC50 in series [5] was over 125000 nM. Also, the IC50 in series [6] was determined as 20000 nM. Moreover, the IC50 in the series with wild-type HCMV AD169 is 1000 nM. For the same molecule, the IC50 in [7] is over 125000 nM.
Consider `CCCCC(=O)Nc1ccc(NC(=O)Nc2ccc(F)c(Cl)c2)cc1` [Example 4, N-[4-({[(3-Chloro-4-fluorophenyl)amino]carbonyl}amino)phenyl]pentanamide], for which the IC50 came out at 500 nM in [1]; 80 nM in series [2]; 2000 nM in [3]; 1000 nM in [4]; 2000 nM in series [5]; 500 nM in [6]. The IC50 with wild-type HCMV AD169 is 80 nM; in series [7], 800 nM. For the same molecule, the “SI (selectivity index)” value in [2] stood at 750.
Regarding `CC1(C)CC(=O)NN=C1c1cc(NC(=O)Nc2cc(F)ccc2F)ccc1O` [Example 2, N-(2,5-Difluorophenyl)-N′-[3-(4,4-dimethyl-6-oxo-1,4,5,6-tetrahydro-3-pyridazinyl)-4-hydroxyphenyl]urea], the IC50 is 2000 nM in [1]; 400 nM in [2]; 13000 nM in series [3]; 6000 nM in [4]; over 125000 nM in series [5]; 3000 nM in series [6]. The IC50 with wild-type HCMV AD169 is 400 nM; in series [7], over 125000 nM. Besides, the “SI (selectivity index)” value in [2] is 325.
